Data from ChEMBL document CHEMBL5316367, “Mass Spectrometry-Guided Discovery of Multi-N-Methylated Cyclodecapeptides Auyuittuqamides E-H from Sesquicillium sp. QL0466” (2023).
Values after ≈ are worked out from the molar mass of the structure shown.

Key:
Assay type in all cases: functional
[1] = tested on: Enterococcus faecium; assay: Antimicrobial activity against vancomycin-resistant Enterococcus faecium 151458137 assessed as inhibition of bacterial growth by microtiter plate reader assay
[2] = tested on: Escherichia coli; assay: Antimicrobial activity against Escherichia coli ATCC 25922 assessed as inhibition of bacterial growth by microtiter plate reader assay
[3] = tested on: Staphylococcus aureus; assay: Antimicrobial activity against methicillin-resistant Staphylococcus aureus 11646 assessed as inhibition of bacterial growth by microtiter plate reader assay
[4] = tested on: Enterococcus faecium; assay: Antimicrobial activity against vancomycin-sensitive Enterococcus faecium 160119481 assessed as inhibition of bacterial growth by microtiter plate reader assay
[5] = tested on: Staphylococcus aureus; assay: Antimicrobial activity against Staphylococcus aureus ATCC 6538 assessed as inhibition of bacterial growth by microtiter plate reader assay

CC[C@H](C)[C@@H]1NC(=O)CNC(=O)[C@H](CC(C)C)N(C)C(=O)[C@H]([C@@H](C)CC)NC(=O)[C@H]([C@@H](C)O)N(C)C(=O)[C@H](Cc2ccccc2)NC(=O)CNC(=O)[C@@H](CC(C)C)N(C)C(=O)[C@H](CC(C)C)NC(=O)[C@H](CO)NC1=O
MIC [1]: 8 µg/mL (≈ 7.57 µM)
MIC [2]: > 128 µg/mL
MIC [3]: > 128 µg/mL
MIC [4]: 8 µg/mL (≈ 7.57 µM)
MIC [5]: 8 µg/mL (≈ 7.57 µM)

CC[C@H](C)[C@@H]1NC(=O)[C@H]([C@@H](C)O)N(C)C(=O)[C@H](Cc2ccccc2)NC(=O)CNC(=O)[C@@H](CC(C)C)N(C)C(=O)[C@H](CC(C)C)NC(=O)[C@H](CO)NC(=O)[C@H](CC(C)C)NC(=O)CNC(=O)[C@H](CC(C)C)N(C)C1=O
MIC [1]: 8 µg/mL (≈ 7.57 µM)
MIC [2]: > 128 µg/mL
MIC [3]: > 128 µg/mL
MIC [4]: 8 µg/mL (≈ 7.57 µM)
MIC [5]: 8 µg/mL (≈ 7.57 µM)

CC[C@H](C)[C@@H]1NC(=O)[C@H](CO)NC(=O)[C@H](CC(C)C)NC(=O)CNC(=O)[C@H](CC(C)C)N(C)C(=O)[C@H]([C@@H](C)CC)NC(=O)[C@H]([C@@H](C)O)N(C)C(=O)[C@H](Cc2ccccc2)NC(=O)CNC(=O)[C@@H](CC(C)C)N(C)C1=O
MIC [1]: 8 µg/mL (≈ 7.57 µM)
MIC [2]: > 128 µg/mL
MIC [3]: > 128 µg/mL
MIC [4]: 8 µg/mL (≈ 7.57 µM)
MIC [5]: 8 µg/mL (≈ 7.57 µM)

CC[C@H](C)[C@@H]1NC(=O)CNC(=O)[C@H](CC(C)C)N(C)C(=O)[C@H]([C@@H](C)CC)NC(=O)[C@H]([C@@H](C)O)N(C)C(=O)[C@H](Cc2ccccc2)NC(=O)CNC(=O)[C@@H](CC(C)C)N(C)C(=O)[C@H]([C@@H](C)CC)NC(=O)[C@H](CO)NC1=O
MIC [1]: 8 µg/mL (≈ 7.57 µM)
MIC [2]: > 128 µg/mL
MIC [3]: > 128 µg/mL
MIC [4]: 8 µg/mL (≈ 7.57 µM)
MIC [5]: 8 µg/mL (≈ 7.57 µM)

NC[C@H]1O[C@H](O[C@H]2[C@H](O)[C@@H](O[C@H]3O[C@H](CO)[C@@H](O)[C@H](N)[C@H]3O)[C@H](N)C[C@@H]2N)[C@H](N)[C@@H](O)[C@@H]1O [BEKANAMYCIN]
MIC [2]: 32 µg/mL (≈ 66.2 µM)
